US9695155B2, “Herbicidal substituted pyrimidinyloxy benzene compounds” (E. I. DU PONT DE NEMOURS AND COMPANY, priority 2013, dated 2017)

Legend:
canarygrass [1] = experiment: Test D preemergence; type: in vivo, Phalaris minor; conditions: Phalaris minor, pre-emergence
Excerpt: (§1) Seeds of plant species selected from bluegrass (annual bluegrass, Poa annua), blackgrass (Alopecurus myosuroides), canarygrass (littleseed canarygrass, Phalaris minor), chickweed (common chickweed, Stellaria media), galium (catchweed bedstraw, Galium aparine), bromegrass, downy (downy bromegrass, Bromus tectorum), field poppy (Papaver rhoeas), field violet (Viola arvensis), green foxtail (Setaria viridis), deadnettle (henbit deadnettle, Lamium amplexicaule), Italian ryegrass (Lolium multiflorum), kochia (Kochia scoparia), lambsquarters (Chenopodium album), oilseed rape (Brassica napus), pigweed (Amaranthus retroflexus), chamomile (scentless chamomile, Matricaria inodora), Russian thistle (Salsola kali), speedwell (bird's-eye speedwell, Veronica persica), spring barley (Hordeum vulgare), spring wheat (Triticum aestivum), wild buckwheat (Polygonum convolvulus), wild mustard (Sinapis arvensis), wild oat (Avena fatua), wild radish (Raphanus raphanistrum), windgrass (Apera spica-venti), winter barley (Hordeum vulgare), and winter wheat (Triticum aestivum) were planted into a silt loam soil and treated preemergence with test chemicals formulated in a non-phytotoxic solvent mixture which included a surfactant.
(§2) At the same time, these species were planted in pots containing Redi-Earth® planting medium (Scotts Company, 14111 Scottslawn Road, Marysville, Ohio 43041) comprising spaghnum peat moss, vermiculite, wetting agent and starter nutrients and treated with postemergence applications of the test chemicals formulated in the same manner. Plants ranged in height from 2 to 18 cm (1- to 4-leaf stage). Treated plants and controls were maintained in a controlled growth environment for 7 to 21 days after which time all species were compared to controls and visually evaluated. Plant response ratings, summarized in Table D, are based on a scale of 0 to 100 where 0 is no effect and 100 is complete control. A dash (-) response means no test result.

wild buckwheat = experiment: Test D postemergence; type: in vivo, Polygonum convolvulus; conditions: Fallopia convolvulus, post-emergence, Postemergence, scale 0 to 100 (0 no effect, 100 complete control), read-out: Plant response rating, Buckwheat, Wild
Outline: (§3)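 Species were sown in silt loam for preemergence treatment, or grown in peat-based medium to the 1–4-leaf stage (2–18 cm) for postemergence sprays. Test chemicals were formulated in a non-phytotoxic solvent mixture with surfactant. After 7–21 days in a controlled environment, plants were rated visually against controls on a 0 (no effect) to 100 (complete control) scale.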

kochia = experiment: Test D preemergence; type: in vivo, Kochia scoparia; conditions: Bassia scoparia, pre-emergence
Outline: as §3

lambsquarters = experiment: Test D postemergence; type: in vivo, Chenopodium album; conditions: Chenopodium album, post-emergence
Excerpt: as §1, §2

canarygrass [2] = experiment: Test D postemergence; type: in vivo, Phalaris minor; conditions: Phalaris minor, post-emergence
Excerpt: as §1, §2

wild radish = experiment: Test D preemergence; type: in vivo, Raphanus raphanistrum; conditions: Raphanus raphanistrum, pre-emergence
Excerpt: as §1, §2

pigweed = experiment: Test D postemergence; type: in vivo, Amaranthus retroflexus; conditions: Amaranthus retroflexus, post-emergence
Outline: as §3

chickweed = experiment: Test D postemergence; type: in vivo, Stellaria media; conditions: Stellaria media, post-emergence
Outline: as §3

green foxtail = experiment: Test D postemergence; type: in vivo, Setaria viridis; conditions: Setaria viridis, post-emergence
Outline: as §3

oilseed rape = experiment: Test D postemergence; type: in vivo, Brassica napus; conditions: Brassica napus, post-emergence
Outline: as §3

SMILES: FC(F)(F)c1cnn(-c2ccccc2Oc2ncc(Br)cn2)c1 [Compound 18, 5-bromo-2-[2-[4-(trifluoromethyl)-1H-pyrazol-1-yl]phenoxy]pyrimidine]
- pest or weed control at 16 g/ha (canarygrass [1]; 16 g ai/ha, scale 0 (no effect) to 100 (complete control), read-out: Plant response rating, Canarygrass): 10%
- pest or weed control at 31 g/ha (canarygrass [1]; 31 g ai/ha, scale 0-100, read-out: Plant response rating, Canarygrass): 25%
- pest or weed control at 62 g/ha (canarygrass [1]; 62 g ai/ha, scale 0-100, read-out: Plant response rating, Canarygrass): 65%
- pest or weed control at 125 g/ha (canarygrass [1]; 125 g ai/ha, scale 0-100, read-out: Plant response rating, Canarygrass): 100%
- pest or weed control at 250 g/ha (canarygrass [1]; 250 g ai/ha, scale 0-100, read-out: Plant response rating, Canarygrass): 100%
- pest or weed control at 16 g/ha (wild buckwheat; 16 g ai/ha): 60%
- pest or weed control at 31 g/ha (wild buckwheat; 31 g ai/ha): 55%
- pest or weed control at 62 g/ha (wild buckwheat; 62 g ai/ha): 70%
- pest or weed control at 125 g/ha (wild buckwheat; 125 g ai/ha): 100%
- pest or weed control at 250 g/ha (wild buckwheat; 250 g ai/ha): 95%
- pest or weed control at 16 g/ha (kochia; 16 g ai/ha, scale 0 (no effect) to 100 (complete control), read-out: Plant response rating, Kochia): 15%
- pest or weed control at 31 g/ha (kochia; 31 g ai/ha, scale 0-100, read-out: Plant response rating, Kochia): 90%
- pest or weed control at 62 g/ha (kochia; 62 g ai/ha, scale 0-100, read-out: Plant response rating, Kochia): 75%
- pest or weed control at 125 g/ha (kochia; 125 g ai/ha, scale 0-100, read-out: Plant response rating, Kochia): 100%
- pest or weed control at 250 g/ha (kochia; 250 g ai/ha, scale 0-100, read-out: Plant response rating, Kochia): 100%
- pest or weed control at 16 g/ha (lambsquarters; 16 g ai/ha, scale 0-100, read-out: Plant response rating, Lambsquarters): 15%
- pest or weed control at 31 g/ha (lambsquarters; 31 g ai/ha, scale 0 to 100 (0 no effect, 100 complete control), read-out: Plant response rating, Lambsquarters): 50%
- pest or weed control at 62 g/ha (lambsquarters; 62 g ai/ha, scale 0 to 100 (0 no effect, 100 complete control), read-out: Plant response rating, Lambsquarters): 90%
- pest or weed control at 125 g/ha (lambsquarters; 125 g ai/ha, scale 0 to 100 (0 no effect, 100 complete control), read-out: Plant response rating, Lambsquarters): 95%
- pest or weed control at 250 g/ha (lambsquarters; 250 g ai/ha, scale 0 to 100 (0 no effect, 100 complete control), read-out: Plant response rating, Lambsquarters): 95%
- pest or weed control at 16 g/ha (canarygrass [2]; 16 g ai/ha, scale 0-100, read-out: Plant response rating, Canarygrass): 10%
- pest or weed control at 31 g/ha (canarygrass [2]; 31 g ai/ha, scale 0 to 100 (0 no effect, 100 complete control), read-out: Plant response rating, Canarygrass): 15%
- pest or weed control at 62 g/ha (canarygrass [2]; 62 g ai/ha, scale 0 to 100 (0 no effect, 100 complete control), read-out: Plant response rating, Canarygrass): 15%
- pest or weed control at 125 g/ha (canarygrass [2]; 125 g ai/ha, scale 0 to 100 (0 no effect, 100 complete control), read-out: Plant response rating, Canarygrass): 20%
- pest or weed control at 250 g/ha (canarygrass [2]; 250 g ai/ha, scale 0 to 100 (0 no effect, 100 complete control), read-out: Plant response rating, Canarygrass): 35%
- pest or weed control at 16 g/ha (wild radish; 16 g ai/ha, scale 0 (no effect) to 100 (complete control), read-out: Plant response rating, Radish, Wild): 100%
- pest or weed control at 31 g/ha (wild radish; 31 g ai/ha, scale 0 (no effect) to 100 (complete control), read-out: Plant response rating, Radish, Wild): 100%
- pest or weed control at 62 g/ha (wild radish; 62 g ai/ha, scale 0-100, read-out: Plant response rating, Radish, Wild): 100%
- pest or weed control at 125 g/ha (wild radish; 125 g ai/ha, scale 0-100, read-out: Plant response rating, Radish, Wild): 100%
- pest or weed control at 250 g/ha (wild radish; 250 g ai/ha, scale 0-100, read-out: Plant response rating, Radish, Wild): 100%
- pest or weed control at 16 g/ha (pigweed; 16 g ai/ha, scale 0-100, read-out: Plant response rating, Pigweed): 65%
- pest or weed control at 31 g/ha (pigweed; 31 g ai/ha, scale 0 to 100 (0 no effect, 100 complete control), read-out: Plant response rating, Pigweed): 75%
- pest or weed control at 62 g/ha (pigweed; 62 g ai/ha, scale 0 to 100 (0 no effect, 100 complete control), read-out: Plant response rating, Pigweed): 75%
- pest or weed control at 125 g/ha (pigweed; 125 g ai/ha, scale 0 to 100 (0 no effect, 100 complete control), read-out: Plant response rating, Pigweed): 95%
- pest or weed control at 250 g/ha (pigweed; 250 g ai/ha, scale 0 to 100 (0 no effect, 100 complete control), read-out: Plant response rating, Pigweed): 95%
- pest or weed control at 16 g/ha (chickweed; 16 g ai/ha, scale 0-100, read-out: Plant response rating, Chickweed): 15%
- pest or weed control at 31 g/ha (chickweed; 31 g ai/ha, scale 0 to 100 (0 no effect, 100 complete control), read-out: Plant response rating, Chickweed): 40%
- pest or weed control at 62 g/ha (chickweed; 62 g ai/ha, scale 0 to 100 (0 no effect, 100 complete control), read-out: Plant response rating, Chickweed): 45%
- pest or weed control at 125 g/ha (chickweed; 125 g ai/ha, scale 0 to 100 (0 no effect, 100 complete control), read-out: Plant response rating, Chickweed): 60%
- pest or weed control at 250 g/ha (chickweed; 250 g ai/ha, scale 0 to 100 (0 no effect, 100 complete control), read-out: Plant response rating, Chickweed): 95%
- pest or weed control at 16 g/ha (green foxtail; 16 g ai/ha, scale 0-100, read-out: Plant response rating, Foxtail, Green): 10%
- pest or weed control at 31 g/ha (green foxtail; 31 g ai/ha, scale 0 to 100 (0 no effect, 100 complete control), read-out: Plant response rating, Foxtail, Green): 10%
- pest or weed control at 62 g/ha (green foxtail; 62 g ai/ha, scale 0 to 100 (0 no effect, 100 complete control), read-out: Plant response rating, Foxtail, Green): 15%
- pest or weed control at 125 g/ha (green foxtail; 125 g ai/ha, scale 0 to 100 (0 no effect, 100 complete control), read-out: Plant response rating, Foxtail, Green): 20%
- pest or weed control at 250 g/ha (green foxtail; 250 g ai/ha, scale 0 to 100 (0 no effect, 100 complete control), read-out: Plant response rating, Foxtail, Green): 25%
- plant injury at 16 g/ha (oilseed rape; 16 g ai/ha, scale 0-100, read-out: Plant response rating, Oilseed Rape): 35%
- plant injury at 31 g/ha (oilseed rape; 31 g ai/ha, scale 0 to 100 (0 no effect, 100 complete control), read-out: Plant response rating, Oilseed Rape): 70%
- plant injury at 62 g/ha (oilseed rape; 62 g ai/ha, scale 0 to 100 (0 no effect, 100 complete control), read-out: Plant response rating, Oilseed Rape): 100%
- plant injury at 125 g/ha (oilseed rape; 125 g ai/ha, scale 0 to 100 (0 no effect, 100 complete control), read-out: Plant response rating, Oilseed Rape): 100%
- plant injury at 250 g/ha (oilseed rape; 250 g ai/ha, scale 0 to 100 (0 no effect, 100 complete control), read-out: Plant response rating, Oilseed Rape): 100%
